From PubChem BioAssay AID256 (DTP/NCI, 2004)
Toxic doses and inconclusive results are not listed. Rule for the calls: active = survival T/C of 150% or more; inactive = T/C below 125% in these data.

Tested on: CD2F1 mice, L1210 leukemia ip, survival T/C
Experiment: NCI In Vivo Anticancer Drug Screen. Data for tumor model L1210 Leukemia (intraperitoneal) in CD2F1 (CDF1) mice
Settings: higher = longer survival
How it was run: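 Mice carrying a transplanted tumor received test compound or vehicle alone. The value is the measurement in the treated group divided by that in the vehicle-treated control group.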

[1] = endpoint: mean survival time, dose: 100.0 mg/kg/injection, schedule: Q01DX009 (ip), vehicle: saline with Tween-80
[2] = endpoint: mean survival time, dose: 100.0 mg/kg/injection, schedule: Q04DX003 (ip), vehicle: saline with Tween-80
[3] = endpoint: mean survival time, dose: 200.0 mg/kg/injection, schedule: Q01DX009 (ip), vehicle: saline with Tween-80
[4] = endpoint: mean survival time, dose: 200.0 mg/kg/injection, schedule: Q04DX003 (ip), vehicle: saline with Tween-80
[5] = endpoint: mean survival time, dose: 400.0 mg/kg/injection, schedule: Q04DX003 (ip), vehicle: saline with Tween-80
[6] = endpoint: mean survival time, dose: 400.0 mg/kg/injection, schedule: Q01DX009 (ip), vehicle: saline with Tween-80
[7] = endpoint: mean survival time, dose: 75.0 mg/kg/injection, schedule: Q01DX001 (ip), vehicle: other
[8] = endpoint: mean survival time, dose: 150.0 mg/kg/injection, schedule: Q01DX001 (ip), vehicle: other
[9] = endpoint: mean survival time, dose: 100.0 mg/kg/injection, schedule: Q01DX001 (ip), vehicle: saline with Tween-80
[10] = endpoint: mean survival time, dose: 200.0 mg/kg/injection, schedule: Q01DX001 (ip), vehicle: saline with Tween-80
[11] = endpoint: mean survival time, dose: 100.0 mg/kg/injection, schedule: Q04DX002 (ip), vehicle: saline with Tween-80
[12] = endpoint: mean survival time, dose: 200.0 mg/kg/injection, schedule: Q04DX002 (ip), vehicle: saline with Tween-80
[13] = endpoint: mean survival time, dose: 400.0 mg/kg/injection, schedule: Q04DX002 (ip), vehicle: saline with Tween-80

Measured: T/C

OCCOc1ccc(Cl)cc1
inactive: [1] 104 % of control | [2] 96 % of control | [3] 100 % of control | [4] 96 % of control | [5] 103 % of control

C/C=C1/CC2C=Nc3cc(O)c(OC)cc3C(=O)N2C1 (configuration not stated)
inactive: endpoint: median survival time, dose: 0.02 mg/kg/injection, schedule: Q01DX005 (ip), vehicle: DMSO 100 % of control | endpoint: median survival time, dose: 0.04 mg/kg/injection, schedule: Q01DX005 (ip), vehicle: DMSO 101 % of control | endpoint: median survival time, dose: 0.08 mg/kg/injection, schedule: Q01DX005 (ip), vehicle: DMSO 104 % of control | endpoint: median survival time, dose: 0.16 mg/kg/injection, schedule: Q01DX005 (ip), vehicle: DMSO 113 % of control | endpoint: median survival time, dose: 0.32 mg/kg/injection, schedule: Q01DX005 (ip), vehicle: DMSO 121 % of control

O=C(O)C(c1ccccc1)C(F)(F)F (configuration not stated)
inactive: [1] 95 % of control | [2] 108 % of control | [3] 105 % of control | [4] 94 % of control | [6] 94 % of control | [5] 92 % of control

O=C(OCC(I)CC(F)(F)C(F)(F)F)c1ccc2cc(C(=O)OC(I)CC(F)(F)C(F)(F)F)ccc2c1 (configuration not stated)
inactive: [7] 101 % of control | [8] 91 % of control | endpoint: mean survival time, dose: 300.0 mg/kg/injection, schedule: Q01DX001 (ip), vehicle: other 97 % of control

O=C1N(C2CCCCC2)CC2C(c3ccccc3)NNC12O (configuration not stated)
inactive: [1] 103 % of control | [2] 97 % of control | [3] 90 % of control | [4] 97 % of control | [6] 100 % of control | [5] 98 % of control

O=C(Nc1ccc(O)cc1)c1c(O)[nH]c(=S)[nH]c1=O
inactive: endpoint: median survival time, dose: 12.5 mg/kg/injection, schedule: Q01DX009 (ip), vehicle: saline with Tween-80 107 % of control | endpoint: median survival time, dose: 25.0 mg/kg/injection, schedule: Q01DX009 (ip), vehicle: saline with Tween-80 106 % of control | endpoint: median survival time, dose: 50.0 mg/kg/injection, schedule: Q01DX009 (ip), vehicle: saline with Tween-80 106 % of control | endpoint: median survival time, dose: 100.0 mg/kg/injection, schedule: Q01DX009 (ip), vehicle: saline with Tween-80 100 % of control

CCCCCCCCc1ccc(O)c(Cl)c1
inactive: [2] 94 % of control | [4] 91 % of control | [5] 94 % of control

CN(C(=O)Nc1ccc([N+](=O)[O-])cc1)c1ccccc1
inactive: endpoint: mean survival time, dose: 100.0 mg/kg/injection, schedule: Q01DX001 (ip), vehicle: saline 96 % of control | endpoint: mean survival time, dose: 200.0 mg/kg/injection, schedule: Q01DX001 (ip), vehicle: saline 98 % of control | endpoint: mean survival time, dose: 400.0 mg/kg/injection, schedule: Q01DX001 (ip), vehicle: saline 102 % of control

O=C(COc1cccc(Cl)c1)NCc1ccccc1NC(=O)Nc1cccc(S(=O)(=O)F)c1
inactive: [9] 88 % of control | [10] 89 % of control | endpoint: mean survival time, dose: 400.0 mg/kg/injection, schedule: Q01DX001 (ip), vehicle: saline with Tween-80 94 % of control

CN(C)[C-]=O.[C-]#[O+].[C-]#[O+].[Fe+6].[c-]1[c-][c-][cH-][c-]1
inactive: [7] 94 % of control | [8] 88 % of control

NNC(=O)CCCCCC/C=C/CCCCCCCO
inactive: endpoint: mean survival time, dose: 50.0 mg/kg/injection, schedule: Q01DX001 (ip), vehicle: saline with Tween-80 98 % of control | [9] 108 % of control | [10] 101 % of control

Nc1ccc(N=Nc2ccc3nccc(N)c3c2)c(N)n1
inactive: [11] 119 % of control | [12] 119 % of control | [13] 119 % of control

Cc1cc(C)c(CN)cc1CN
inactive: endpoint: mean survival time, dose: 25.0 mg/kg/injection, schedule: Q04DX003 (ip), vehicle: saline with Tween-80 91 % of control | endpoint: mean survival time, dose: 50.0 mg/kg/injection, schedule: Q04DX003 (ip), vehicle: saline with Tween-80 88 % of control | [2] 96 % of control

Cc1ccc(NC(=O)/C=C/c2ccccc2)c(C)c1
inactive: [11] 94 % of control | [12] 94 % of control | [13] 94 % of control
